Biological target: T1, α7-nAChR (Rattus norvegicus, UniProt Q05941)
T1 construct: gene Chrna7; native receptor in rat brain sections
Assay: radioligand autoradiography ([…] and 3H, […]) with blocking by ASEM and unlabeled KIn-83
Conditions: read-out: % of total binding displaced at 10 uM

T1 sequence (Q05941 23-502): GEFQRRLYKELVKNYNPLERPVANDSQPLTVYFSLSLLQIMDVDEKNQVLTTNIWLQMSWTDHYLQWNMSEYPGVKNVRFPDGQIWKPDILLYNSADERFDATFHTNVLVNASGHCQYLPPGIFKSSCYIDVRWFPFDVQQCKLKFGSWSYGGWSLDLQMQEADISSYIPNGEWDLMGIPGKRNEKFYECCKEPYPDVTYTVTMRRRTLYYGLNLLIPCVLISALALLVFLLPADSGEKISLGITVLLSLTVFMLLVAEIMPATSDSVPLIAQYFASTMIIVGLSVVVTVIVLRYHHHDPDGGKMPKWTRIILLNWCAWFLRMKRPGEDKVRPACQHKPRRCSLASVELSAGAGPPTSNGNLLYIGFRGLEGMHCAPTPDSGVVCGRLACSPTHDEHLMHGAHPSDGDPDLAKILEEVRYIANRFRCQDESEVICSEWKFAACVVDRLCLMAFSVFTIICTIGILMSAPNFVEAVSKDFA

COc1cccc2c1S(=O)(=O)c1cc(N3CCN4CCC3CC4)ccc1-2 [KIn-83]
inhibition at 10 µM: 80%
